Measured values from PMC8414988 (Pediatric blood & cancer, 2021).

Experiment: Adverse events graded by NCI CTCAE v4.0, all reported regardless of attribution
Type: in vivo, human

## CC(=O)c1c(C)c2cnc(Nc3ccc(N4CCNCC4)cn3)nc2n(C2CCCC2)c1=O [palbociclib]
Stratum I and II
  most common toxicity: myelosuppression
Stratum I, grade 1
  Alanine aminotransferase increased, episodes: 4(4)
  Alanine aminotransferase increased, patients: 4(4)
  Anemia, episodes: 7
  Anemia, patients: 5
  Ataxia, episodes: 1(1)
  Ataxia, patients: 1(1)
  Constipation, episodes: 8
  Constipation, patients: 6
  Diarrhea, episodes: 4
  Diarrhea, patients: 3
  Dry skin, episodes: 3(3)
  Dry skin, patients: 3(3)
  Fatigue, episodes: 7(7)
  Fatigue, patients: 7(7)
  Headache, episodes: 4
  Headache, patients: 3
  Hypokalemia, episodes: 5
  Hypokalemia, patients: 4
  Lymphocyte count decreased, episodes: 22
  Lymphocyte count decreased, patients: 8
  Mucositis oral, episodes: 5
  Mucositis oral, patients: 2
  Nausea, episodes: 4
  Nausea, patients: 3
  Neutrophil count decreased, episodes: 8
  Neutrophil count decreased, patients: 5
  Platelet count decreased, episodes: 28
  Platelet count decreased, patients: 10
  Vomiting, episodes: 5
  Vomiting, patients: 4
  White blood cell decreased, episodes: 14
  White blood cell decreased, patients: 9
Stratum I, grade 2
  Anemia, episodes: 2(2)
  Anemia, patients: 2(2)
  Ataxia, episodes: 3(3)
  Ataxia, patients: 3(3)
  Fatigue, episodes: 3(3)
  Fatigue, patients: 3(3)
  Gait disturbance, episodes: 2(2)
  Gait disturbance, patients: 2(2)
  Headache, episodes: 3
  Headache, patients: 2
  Hypokalemia, episodes: 1(1)
  Hypokalemia, patients: 1(1)
  Lymphocyte count decreased, episodes: 17
  Lymphocyte count decreased, patients: 4
  Mucositis oral, episodes: 5
  Mucositis oral, patients: 2
  Nausea, episodes: 1(1)
  Nausea, patients: 1(1)
  Neutrophil count decreased, episodes: 26
  Neutrophil count decreased, patients: 7
  Vomiting, episodes: 1(1)
  Vomiting, patients: 1(1)
  White blood cell decreased, episodes: 37
  White blood cell decreased, patients: 14
Stratum I, grade 3
  Ataxia, episodes: 1(1)
  Ataxia, patients: 1(1)
  Gait disturbance, episodes: 1(1)
  Gait disturbance, patients: 1(1)
  Lymphocyte count decreased, episodes: 12
  Lymphocyte count decreased, patients: 7
  Muscle weakness left-sided, episodes: 3(3)
  Muscle weakness left-sided, patients: 3(3)
  Nausea, episodes: 1(1)
  Nausea, patients: 1(1)
  Neutrophil count decreased, episodes: 27
  Neutrophil count decreased, patients: 9
  Vomiting, episodes: 1(1)
  Vomiting, patients: 1(1)
  White blood cell decreased, episodes: 19
  White blood cell decreased, patients: 3
Stratum I, grade 4
  Neutrophil count decreased, episodes: 3(3)
  Neutrophil count decreased, patients: 3(3)
Stratum I, overall
  Alanine aminotransferase increased, episodes: 4(4)
  Alanine aminotransferase increased, patients: 4(4)
  Anemia, episodes: 9
  Anemia, patients: 7
  Ataxia, episodes: 5(5)
  Ataxia, patients: 5(5)
  Constipation, episodes: 8
  Constipation, patients: 6
  Diarrhea, episodes: 4
  Diarrhea, patients: 3
  Dry skin, episodes: 3(3)
  Dry skin, patients: 3(3)
  Fatigue, episodes: 10
  Fatigue, patients: 9
  Gait disturbance, episodes: 3(3)
  Gait disturbance, patients: 3(3)
  Headache, episodes: 7
  Headache, patients: 4
  Hypokalemia, episodes: 6
  Hypokalemia, patients: 5
  Lymphocyte count decreased, episodes: 51
  Lymphocyte count decreased, patients: 13
  Mucositis oral, episodes: 10
  Mucositis oral, patients: 3
  Muscle weakness left-sided, episodes: 3(3)
  Muscle weakness left-sided, patients: 3(3)
  Nausea, episodes: 6
  Nausea, patients: 3
  Neutrophil count decreased, episodes: 64
  Neutrophil count decreased, patients: 15
  Platelet count decreased, episodes: 28
  Platelet count decreased, patients: 10
  Vomiting, episodes: 7
  Vomiting, patients: 5
  White blood cell decreased, episodes: 70
  White blood cell decreased, patients: 17
Stratum II, grade 1
  Alanine aminotransferase increased, episodes: 3
  Alanine aminotransferase increased, patients: 2
  Anemia, episodes: 17
  Anemia, patients: 9
  Anorexia, episodes: 3(3)
  Anorexia, patients: 3(3)
  Aspartate aminotransferase increased, episodes: 2(2)
  Aspartate aminotransferase increased, patients: 2(2)
  Constipation, episodes: 1(1)
  Constipation, patients: 1(1)
  Dizziness, episodes: 3
  Dizziness, patients: 2
  Electrocardiogram qt corrected interval prolonged, episodes: 3
  Electrocardiogram qt corrected interval prolonged, patients: 2
  Fatigue, episodes: 2(2)
  Fatigue, patients: 2(2)
  Headache, episodes: 1(1)
  Headache, patients: 1(1)
  Hypercalcemia, episodes: 2(2)
  Hypercalcemia, patients: 2(2)
  Hyperkalemia, episodes: 2(2)
  Hyperkalemia, patients: 2(2)
  Hypokalemia, episodes: 3(3)
  Hypokalemia, patients: 3(3)
  Lymphocyte count decreased, episodes: 10
  Lymphocyte count decreased, patients: 5
  Mucositis oral, episodes: 1(1)
  Mucositis oral, patients: 1(1)
  Neutrophil count decreased, episodes: 6
  Neutrophil count decreased, patients: 4
  Pain, episodes: 1(1)
  Pain, patients: 1(1)
  Platelet count decreased, episodes: 16
  Platelet count decreased, patients: 8
  Vomiting, episodes: 5
  Vomiting, patients: 3
  White blood cell decreased, episodes: 13
  White blood cell decreased, patients: 5
Stratum II, grade 2
  Anemia, episodes: 3(3)
  Anemia, patients: 3(3)
  Constipation, episodes: 2
  Constipation, patients: 1
  Dizziness, episodes: 1(1)
  Dizziness, patients: 1(1)
  Fatigue, episodes: 2(2)
  Fatigue, patients: 2(2)
  Headache, episodes: 1(1)
  Headache, patients: 1(1)
  Lymphocyte count decreased, episodes: 6
  Lymphocyte count decreased, patients: 3
  Mucositis oral, episodes: 1(1)
  Mucositis oral, patients: 1(1)
  Neutrophil count decreased, episodes: 19
  Neutrophil count decreased, patients: 10
  Platelet count decreased, episodes: 5
  Platelet count decreased, patients: 3
  White blood cell decreased, episodes: 18
  White blood cell decreased, patients: 9
Stratum II, grade 3
  Headache, episodes: 2(2)
  Headache, patients: 2(2)
  Lymphocyte count decreased, episodes: 3(3)
  Lymphocyte count decreased, patients: 3(3)
  Neutrophil count decreased, episodes: 13
  Neutrophil count decreased, patients: 9
  Pain, episodes: 1(1)
  Pain, patients: 1(1)
  Platelet count decreased, episodes: 2(2)
  Platelet count decreased, patients: 2(2)
  Seizure, episodes: 3(3)
  Seizure, patients: 3(3)
  Vomiting, episodes: 1(1)
  Vomiting, patients: 1(1)
  White blood cell decreased, episodes: 7
  White blood cell decreased, patients: 6
Stratum II, grade 4
  Neutrophil count decreased, episodes: 1(1)
  Neutrophil count decreased, patients: 1(1)
  Platelet count decreased, episodes: 1(1)
  Platelet count decreased, patients: 1(1)
Stratum II, overall
  Alanine aminotransferase increased, episodes: 3
  Alanine aminotransferase increased, patients: 2
  Anemia, episodes: 20
  Anemia, patients: 10
  Anorexia, episodes: 3(3)
  Anorexia, patients: 3(3)
  Aspartate aminotransferase increased, episodes: 2(2)
  Aspartate aminotransferase increased, patients: 2(2)
  Constipation, episodes: 3
  Constipation, patients: 2
  Dizziness, episodes: 4
  Dizziness, patients: 3
  Electrocardiogram qt corrected interval prolonged, episodes: 3
  Electrocardiogram qt corrected interval prolonged, patients: 2
  Fatigue, episodes: 4(4)
  Fatigue, patients: 4(4)
  Headache, episodes: 4(4)
  Headache, patients: 4(4)
  Hypercalcemia, episodes: 2(2)
  Hypercalcemia, patients: 2(2)
  Hyperkalemia, episodes: 2(2)
  Hyperkalemia, patients: 2(2)
  Hypokalemia, episodes: 3(3)
  Hypokalemia, patients: 3(3)
  Lymphocyte count decreased, episodes: 19
  Lymphocyte count decreased, patients: 7
  Mucositis oral, episodes: 2(2)
  Mucositis oral, patients: 2(2)
  Neutrophil count decreased, episodes: 39
  Neutrophil count decreased, patients: 11
  Pain, episodes: 2(2)
  Pain, patients: 2(2)
  Platelet count decreased, episodes: 24
  Platelet count decreased, patients: 8
  Seizure, episodes: 3(3)
  Seizure, patients: 3(3)
  Vomiting, episodes: 6
  Vomiting, patients: 4
  White blood cell decreased, episodes: 38
  White blood cell decreased, patients: 11
